Legend:
[1] = biological target: T1, 15-LO (Glycine max, UniProt P08170); experiment: Effect on 15-LO catalysed oxidation of arachidonic acid; assay type: biochemical, soybean
T1 construct: purchased Sigma Chemical Company
T1 sequence (P08170 1-839): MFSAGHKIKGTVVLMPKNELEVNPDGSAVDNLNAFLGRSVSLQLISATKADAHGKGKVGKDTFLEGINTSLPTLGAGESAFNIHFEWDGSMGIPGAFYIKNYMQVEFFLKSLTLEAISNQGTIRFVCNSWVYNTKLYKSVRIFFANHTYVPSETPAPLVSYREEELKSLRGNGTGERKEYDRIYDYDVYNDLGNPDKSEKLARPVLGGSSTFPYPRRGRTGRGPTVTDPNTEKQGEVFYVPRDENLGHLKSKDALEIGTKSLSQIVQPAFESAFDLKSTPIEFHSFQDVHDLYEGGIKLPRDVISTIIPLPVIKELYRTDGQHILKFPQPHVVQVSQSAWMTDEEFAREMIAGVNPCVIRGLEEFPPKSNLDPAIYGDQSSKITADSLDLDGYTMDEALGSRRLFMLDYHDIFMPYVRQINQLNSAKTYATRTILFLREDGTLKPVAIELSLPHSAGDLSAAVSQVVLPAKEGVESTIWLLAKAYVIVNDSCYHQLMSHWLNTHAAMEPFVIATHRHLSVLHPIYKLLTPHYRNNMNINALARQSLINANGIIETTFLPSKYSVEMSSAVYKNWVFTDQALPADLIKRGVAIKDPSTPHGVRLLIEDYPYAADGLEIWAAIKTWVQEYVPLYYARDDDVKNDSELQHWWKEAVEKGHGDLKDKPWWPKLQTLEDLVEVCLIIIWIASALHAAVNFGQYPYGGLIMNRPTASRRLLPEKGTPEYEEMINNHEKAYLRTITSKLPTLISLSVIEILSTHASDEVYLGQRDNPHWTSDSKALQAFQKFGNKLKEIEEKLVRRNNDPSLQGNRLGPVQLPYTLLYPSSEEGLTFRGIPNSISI

[2] = system: 5-LO; experiment: Effect on 5-LO catalysed oxidation of arachidonic acid; assay type: biochemical
[3] = biological target: T2, 12-LO (Sus scrofa, UniProt P16469); experiment: 12-LO catalysed oxidation of the nitro compounds (substrate test); assay type: biochemical, porcine; conditions: pH 7.4 buffer, UV 234 nm
T2 construct: purchased Cayman Chemical Company
T2 sequence (P16469 1-663): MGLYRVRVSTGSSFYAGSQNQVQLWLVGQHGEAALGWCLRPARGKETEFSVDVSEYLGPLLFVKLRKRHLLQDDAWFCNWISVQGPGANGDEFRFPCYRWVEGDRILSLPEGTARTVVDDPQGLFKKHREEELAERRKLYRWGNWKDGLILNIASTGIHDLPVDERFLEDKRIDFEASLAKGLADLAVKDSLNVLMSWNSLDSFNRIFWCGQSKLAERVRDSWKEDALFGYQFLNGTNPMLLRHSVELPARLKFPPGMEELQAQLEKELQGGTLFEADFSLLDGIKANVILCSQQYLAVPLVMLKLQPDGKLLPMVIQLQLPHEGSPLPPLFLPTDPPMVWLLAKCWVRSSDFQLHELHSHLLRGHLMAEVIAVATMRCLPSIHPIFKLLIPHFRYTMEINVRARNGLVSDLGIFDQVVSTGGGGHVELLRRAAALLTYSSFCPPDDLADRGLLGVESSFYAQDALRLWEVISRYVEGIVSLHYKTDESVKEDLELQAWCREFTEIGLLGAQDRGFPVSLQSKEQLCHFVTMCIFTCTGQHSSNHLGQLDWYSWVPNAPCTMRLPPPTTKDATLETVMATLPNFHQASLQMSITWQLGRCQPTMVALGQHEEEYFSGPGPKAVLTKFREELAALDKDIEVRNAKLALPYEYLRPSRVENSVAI
Protocol: (§1) Based on this consideration, 5-LO, 12-LO and 15-LO catalysed oxidation of the nitro compounds (4a, 4b, 6a, 6b, 8a and 8b) was investigated. Each of the nitro compounds was treated with 15-LO in pH 9.0 buffer (or 5-LO in pH 6.3 buffer and 12-LO in pH 7.4 buffer), and the formation of 15-hydroperoxy derivatives (or 5-hydroperoxy or 12-hydroperoxy derivatives) over time was monitored by UV spectroscopy at 234 nm.

[4] = system: 5-LO; experiment: 5-LO catalysed oxidation of the nitro compounds (substrate test); assay type: biochemical; conditions: pH 6.3 buffer, UV 234 nm
Protocol: as §1

[5] = system: human neutrophils; experiment: Neutrophil degranulation: release of β-glucuronidase; assay type: cell-based; conditions: 20 μg/ml
Protocol: The activation of human neutrophils by nitro compounds was assessed by the ability to stimulate superoxide production (chemiluminescence response) and release of lysosomal enzymes from specific and azurophilic granules. Neutrophils were prepared from whole blood taken from normal healthy volunteers by the rapid-single step procedure^(41). Briefly, blood anticoagulated with heparin was carefully layered on a hypaque-ficoll medium of 1.114 g/ml and centrifuged in swing-out-buckets at 200 g/30 min. The leukocytes were resolved into two bands and the erythrocytes sedimented at the bottom of the tube. The second leukocyte band approximately 0.7 cm from the mononuclear cell containing band at the interface contained neutrophils of >98% purity and >99% viability (trypan blue dye exclusion criteria). The neutrophils were carefully harvested with a pasteur pipette, and washed and resuspended in tissue culture medium. The respiratory burst response of neutrophils was assessed by measuring superoxide production by the lucigenin dependent chemiluminescence assay essentially as described previously^(42). Briefly, 1×10^6 neutrophils (100 μl) in HBSS were treated with the nitro analogues of fatty acids (100 μl), then lucigenin was added and the volume made up. […]

[6] = system: human neutrophils; experiment: AA-enhanced chemiluminescence in human neutrophils; assay type: cell-based; conditions: neutrophils pretreated with compound
Protocol: Arachidonic acid (AA) is a natural agonist which stimulates oxygen radical production in neutrophils leading to tissue damage during inflammation. Studies were conducted to examine whether or not the Lx compounds could antagonise the effects of AA. Neutrophils were pretreated with Lx compounds and then examined for chemiluminescence response to AA addition. […] The effect of Lx compounds on AA-enhanced chemiluminescence in human neutrophils is shown graphically in FIG. 11.

CCCCC/C=C\C/C=C\C/C=C\C/C=C\CCCC(CCC(=O)O)[N+](=O)[O-] (stereo not shown) [Lx7, (a11-Z)-4-Nitrotricosa-8,11,14,17-tetraenoic acid]
Effect on 15-LO catalysed oxidation of AA [1]: Substrate | Effect on 5-LO catalysed oxidation of AA [2]: Activatory | Substrate for 12-LO ([3]; listed as 6b): substrate | Substrate for 12-LO ([3]; listed as (all-Z)-4-nitrotricosa-8,11,14,17-tetraenoic acid): good substrate | Substrate for 5-LO [4]: not for 5-LO | Release of β-glucuronidase (azurophilic granule marker) [5]: as potent as 20:4n-6 and 22:6n-3 | Inhibition of AA-stimulated oxygen radical production (chemiluminescence) [6]: particularly evident

Reference: patent publication US6924309B2 (Children, Youth and Women's Health Service Incorporated, priority 1999, dated 2005)
